Structures are written as SMILES.

This assay deals with LL-37. As to the kind of experiment: LL-37 expression (qPCR) in OKF6 gingival epithelial cells after overnight treatment. The assay is classed as cell-based. The following applies: topical application to gingival epithelial cells (GEC). As for the experimental part: OKF6 Cells (Gingival epithelial cells) were grown in 6 well tissue culture plates. Cells monolayer was treated with indicated doses (FIG. 1) of Vitamin D3 or phenylbutyrate alone or in combinations of two and cells were further incubated in tissue culture incubator for overnight incubation. After overnight incubation, cells were harvested in RNA lysis buffer. Lysates were processed for RNA isolation using Qiagen RNA isolation kit. RNA was processed for c-DNA preparation and further amplified (qPCR) using LL-37 (Hs 01011708_m1), Cyp24A1 (Hs00989018_m1), GAPDH (Hs 99999905_m1) Taqman genes specific probes. QPCR data was analyzed for fold induction of LL-37 expression and relative difference of expressions was plotted. […] As illustrated by the data described in FIGS. 1 and 2, the inventive combinations of the present invention provide a synergistic increase in LL-37 and CYP24A1, respectively.

With `C=C1/C(=C\C=C2/CCC[C@]3(C)[C@@H]([C@H](C)CCCC(C)(C)O)CC[C@@H]23)C[C@@H](O)C[C@@H]1O` [1,25(OH)2D3, 1,25-dihydroxycholecalciferol], the “expression of anti-microbial peptide (LL-37) proteins” value is listed as “enhanced expression”.
